This is an account of results in PMC6270163, “Anti-inflammatory Lignans from the Fruits of Acanthopanax sessiliflorus” (Molecules, 2012).

For data set [1], the system named is LPS-induced NO production in RAW 264.7 macrophage cells. The data set can be described thus: Inhibition of LPS-induced NO production (nitrite, Griess reagent). The note with it: pretreated 1 h with compounds, then LPS (1 μg/mL) for 24 h, mean ± SD, three independent experiments. On the technique in general: Nitrite, measured by Griess reagent, commonly stands in for NO production.
Protocol: Assays for NO production and cell viability were carried out as previously described [23]. […] The plates were pretreated with various concentrations of samples for 30 min and incubated with LPS (1 μg/mL) for 24 h. The amount of NO was determined by the nitrite concentration in cultured RAW264.7 macrophage supernatants using the Griess reagent. The cell viability was evaluated by MTT reduction.

Data set [2] in a line: in vitro. The note with it: mouse.
Data set [3] deals with RAW 264.7 macrophages. The data set can be described thus: Cell viability by MTT reduction. To be noted: for Cell toxicity / influence on cell viability (in words): RAW 264.7 cells treated with compounds.
Where [4] appears, read: Mus musculus, RAW264.7, read-out: IC50 (concentration that caused 50% inhibition of NO production), LPS-activated RAW 264.7 macrophage cells.
Setting [5] is: read-out: IC50 (concentration that caused 50% inhibition of NO production), LPS-activated RAW 264.7 macrophage cells.

Like-named read-outs stand apart in the source and are kept apart here.

Turning to `c1cc2c(cc1[C@@H]1OCC3C1CO[C@H]3c1ccc3c(c1)OCO3)OCO2` (single isomer, unassigned; (-)) [Compound 2, (−)-sesamin], the values for the IC50 in data set [1] (setting [4]) and in data set [1] (setting [5]) were 49.9 to 65.1 µM and 38.9 ± 2.86 µM, respectively. The viability (as a rule, a per cent measure of how many cells are alive, often set against a control) at 24 h, 100 µM in data set [2] stood at 95.5 ± 2.01%.
On to `COc1cc([C@H]2OC[C@@H]3[C@H]2CO[C@H]3c2ccc3c(c2)OCO3)ccc1O` [Compound 6, (+)-piperitol], for which the IC50 in data set [1] (setting [4]) is 22.3 ± 1.1 µM. In data set [2] (RAW 264.7 macrophages), the viability at 24 h, 100 µM was 84.1 ± 2.46%.
In turn, `COc1cc([C@H]2OC[C@H]3[C@@H]2CO[C@@H]3c2cc(OC)c(O[C@@H]3O[C@H](CO)[C@@H](O)[C@H](O)[C@H]3O)c(OC)c2)cc(OC)c1O` [Compound 8, acanthoside B] registered a viability at 24 h, 100 µM in data set [2] of 82.4 ± 1.27%.
In the case of `COc1cc(OC)cc([C@@H](O)[C@H]2COC[C@@H]2Cc2ccc(O)c(O)c2)c1` [Compound 1, 3-(3',4'-dihydroxybenzyl)-4-[(7S),7-hydroxy-3,5-dimethoxybenzyl]tetrahydrofuran], the IC50 in data set [1] (setting [4]) was determined as 49.9 ± 6.56 µM. Also, in data set [2] (RAW 264.7 macrophages), the viability at 24 h, 100 µM was determined as 84.8 ± 2.71%.
On to `COc1cc([C@H]2OC[C@H]3[C@@H]2CO[C@@H]3c2ccc3c(c2)OCO3)ccc1O` [Compound 7, (+)-xanthoxylol], for which the IC50 in data set [1] (setting [4]) was 27.6 µM; in data set [1] (setting [5]), 21.6 ± 1.28 µM. The molecule further returned a viability at 24 h, 100 µM in data set [2] (RAW 264.7 macrophages) of 88.4 ± 3.71%.
As to `O=C1OC[C@H](Cc2ccc3c(c2)OCO3)[C@H]1Cc1ccc2c(c1)OCO2` [Compound 3, (−)-hinokinin], the IC50 in data set [1] (setting [4]) was 21.6 ± 1.19 µM. The molecule further yielded a viability at 24 h, 100 µM in data set [2] (RAW 264.7 macrophages) of 50.2 ± 1.55%. Moreover, the “Cell toxicity / influence on cell viability (in words)” value in data set [3] is reported as “Some cell toxicity was observed”.
Turning to `N=C(N)NN` [Aminoguanidine, reference compound], the IC50 in data set [1] (setting [5]) stood at 6.51 ± 1.15 µM. The “Cell viability (%)” value in data set [3] (RAW 264.7 cells, at a concentration of 100 μM, MTT reduction, mean ± SD, three independent experiments) came to 84.61 ± 2.50%.
In the case of `COc1cc([C@H]2OC[C@H]3[C@@H]2CO[C@@H]3c2ccc3c(c2)OCO3)ccc1O[C@@H]1O[C@H](CO)[C@@H](O)[C@H](O)[C@H]1O` [Compound 9, simlexoside], in data set [1] (setting [4]), the IC50 amounted to 53 ± 2.75 µM. The molecule also gave a viability at 24 h, 100 µM in data set [2] (RAW 264.7 macrophages) of 54.5 ± 2.21%. Moreover, the “Cell toxicity / influence on cell viability (in words)” value in data set [3] is “Some cell toxicity was observed”.
With (+)-pinoresinol [Compound 5], in data set [1] (setting [5]), the IC50 stood at 10.3 ± 2.37 µM.
